Data reported in paper PMC4508061, “Selectivity Profiling and Biological Activity of Novel β-Carbolines as Potent and Selective DYRK1 Kinase Inhibitors” (PLoS ONE, 2015).

Legend:
Assay in all cases: ProQinase radiometric kinase panel
Conditions in all cases: mean of 2 exp.
[1] = molecular target: SYK (Homo sapiens, UniProt P43405)
[2] = molecular target: CHK1 (Homo sapiens, UniProt O14757)
[3] = molecular target: ABL1 (Homo sapiens, UniProt P00519)
[4] = molecular target: MATK (Homo sapiens, UniProt P42679)
[5] = molecular target: T1, HIPK4 (Homo sapiens, UniProt Q8NE63)
T1 sequence (Q8NE63 1-616): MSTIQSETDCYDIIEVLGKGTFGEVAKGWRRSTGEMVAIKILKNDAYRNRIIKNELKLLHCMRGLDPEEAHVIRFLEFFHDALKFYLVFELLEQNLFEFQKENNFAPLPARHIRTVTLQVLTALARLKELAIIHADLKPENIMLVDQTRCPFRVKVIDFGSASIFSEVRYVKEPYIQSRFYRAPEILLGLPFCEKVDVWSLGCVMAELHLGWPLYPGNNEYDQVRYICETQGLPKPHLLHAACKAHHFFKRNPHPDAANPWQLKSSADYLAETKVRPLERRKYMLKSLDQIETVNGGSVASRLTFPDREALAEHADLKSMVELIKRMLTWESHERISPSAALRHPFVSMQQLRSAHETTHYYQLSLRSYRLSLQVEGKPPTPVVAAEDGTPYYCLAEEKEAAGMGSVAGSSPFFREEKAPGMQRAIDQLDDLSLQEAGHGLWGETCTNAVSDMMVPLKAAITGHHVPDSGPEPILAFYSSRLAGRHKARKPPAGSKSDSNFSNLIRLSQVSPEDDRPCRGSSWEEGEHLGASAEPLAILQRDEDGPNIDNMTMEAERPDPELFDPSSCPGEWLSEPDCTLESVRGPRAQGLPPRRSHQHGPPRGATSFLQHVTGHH

[6] = molecular target: HIPK3 (Homo sapiens, UniProt Q9H422)
Sequence of HIPK3 (Q9H422 whole entry): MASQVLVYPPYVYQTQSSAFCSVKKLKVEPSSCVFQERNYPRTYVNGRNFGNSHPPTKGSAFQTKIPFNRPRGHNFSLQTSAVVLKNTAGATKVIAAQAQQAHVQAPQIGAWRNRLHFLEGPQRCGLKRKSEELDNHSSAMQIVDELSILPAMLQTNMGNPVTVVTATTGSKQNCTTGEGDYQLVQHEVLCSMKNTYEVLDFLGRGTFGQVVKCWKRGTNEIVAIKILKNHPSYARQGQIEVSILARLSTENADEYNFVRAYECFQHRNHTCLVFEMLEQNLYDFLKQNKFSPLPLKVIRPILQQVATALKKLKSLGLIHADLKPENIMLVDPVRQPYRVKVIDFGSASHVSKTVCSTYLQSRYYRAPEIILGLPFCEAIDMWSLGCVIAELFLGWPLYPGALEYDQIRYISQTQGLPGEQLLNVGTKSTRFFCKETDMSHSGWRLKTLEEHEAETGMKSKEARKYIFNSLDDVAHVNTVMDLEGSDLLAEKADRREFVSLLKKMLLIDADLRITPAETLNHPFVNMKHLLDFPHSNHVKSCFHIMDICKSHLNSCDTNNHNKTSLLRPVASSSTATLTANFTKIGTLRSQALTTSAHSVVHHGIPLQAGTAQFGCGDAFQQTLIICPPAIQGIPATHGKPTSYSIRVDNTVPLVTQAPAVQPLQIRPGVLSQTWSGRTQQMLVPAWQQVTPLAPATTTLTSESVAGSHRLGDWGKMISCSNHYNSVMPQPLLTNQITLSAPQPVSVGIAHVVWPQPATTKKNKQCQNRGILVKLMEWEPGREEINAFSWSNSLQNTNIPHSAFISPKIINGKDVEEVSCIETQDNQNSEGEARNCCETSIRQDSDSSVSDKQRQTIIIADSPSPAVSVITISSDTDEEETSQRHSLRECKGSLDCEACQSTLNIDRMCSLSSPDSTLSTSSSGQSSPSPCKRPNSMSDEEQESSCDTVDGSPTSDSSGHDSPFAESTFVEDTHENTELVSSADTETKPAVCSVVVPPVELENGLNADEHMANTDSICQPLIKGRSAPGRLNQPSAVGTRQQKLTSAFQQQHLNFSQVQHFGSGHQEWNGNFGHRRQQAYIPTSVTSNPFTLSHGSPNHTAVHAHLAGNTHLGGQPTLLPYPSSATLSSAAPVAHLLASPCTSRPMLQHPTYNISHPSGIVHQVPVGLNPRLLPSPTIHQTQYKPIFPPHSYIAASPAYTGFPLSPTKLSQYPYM

[7] = molecular target: PAK3 (Homo sapiens, UniProt O75914)
[8] = molecular target: MEKK3 (Homo sapiens, UniProt Q99759)
[9] = molecular target: CAMK4 (Homo sapiens, UniProt Q16566)
Sequence of CAMK4 (Q16566 whole entry): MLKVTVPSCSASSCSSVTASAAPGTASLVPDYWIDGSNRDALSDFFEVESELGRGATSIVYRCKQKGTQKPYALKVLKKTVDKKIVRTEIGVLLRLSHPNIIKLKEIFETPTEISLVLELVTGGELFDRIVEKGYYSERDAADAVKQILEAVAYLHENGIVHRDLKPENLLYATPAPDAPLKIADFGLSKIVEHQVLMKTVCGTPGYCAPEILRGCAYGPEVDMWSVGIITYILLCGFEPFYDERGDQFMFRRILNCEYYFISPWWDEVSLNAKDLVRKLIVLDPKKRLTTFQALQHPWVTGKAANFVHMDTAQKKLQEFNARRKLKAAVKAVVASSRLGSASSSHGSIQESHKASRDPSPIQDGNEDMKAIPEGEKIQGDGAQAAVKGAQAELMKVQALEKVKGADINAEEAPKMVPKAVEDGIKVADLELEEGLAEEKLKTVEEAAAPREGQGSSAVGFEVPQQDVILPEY

[10] = molecular target: VEGF-R2 (Homo sapiens, UniProt P35968)
[11] = molecular target: MERTK (Homo sapiens, UniProt Q12866)
[12] = molecular target: INS-R (Homo sapiens, UniProt P06213)
[13] = molecular target: FES (Homo sapiens, UniProt P07332)
[14] = molecular target: PIM1 (Homo sapiens, UniProt P11309)
[15] = molecular target: BTK (Homo sapiens, UniProt Q06187)
[16] = molecular target: PKC-alpha (Homo sapiens, UniProt P17252)
[17] = molecular target: FGF-R2 (Homo sapiens, UniProt P21802)
Sequence of FGF-R2 (P21802 22-821): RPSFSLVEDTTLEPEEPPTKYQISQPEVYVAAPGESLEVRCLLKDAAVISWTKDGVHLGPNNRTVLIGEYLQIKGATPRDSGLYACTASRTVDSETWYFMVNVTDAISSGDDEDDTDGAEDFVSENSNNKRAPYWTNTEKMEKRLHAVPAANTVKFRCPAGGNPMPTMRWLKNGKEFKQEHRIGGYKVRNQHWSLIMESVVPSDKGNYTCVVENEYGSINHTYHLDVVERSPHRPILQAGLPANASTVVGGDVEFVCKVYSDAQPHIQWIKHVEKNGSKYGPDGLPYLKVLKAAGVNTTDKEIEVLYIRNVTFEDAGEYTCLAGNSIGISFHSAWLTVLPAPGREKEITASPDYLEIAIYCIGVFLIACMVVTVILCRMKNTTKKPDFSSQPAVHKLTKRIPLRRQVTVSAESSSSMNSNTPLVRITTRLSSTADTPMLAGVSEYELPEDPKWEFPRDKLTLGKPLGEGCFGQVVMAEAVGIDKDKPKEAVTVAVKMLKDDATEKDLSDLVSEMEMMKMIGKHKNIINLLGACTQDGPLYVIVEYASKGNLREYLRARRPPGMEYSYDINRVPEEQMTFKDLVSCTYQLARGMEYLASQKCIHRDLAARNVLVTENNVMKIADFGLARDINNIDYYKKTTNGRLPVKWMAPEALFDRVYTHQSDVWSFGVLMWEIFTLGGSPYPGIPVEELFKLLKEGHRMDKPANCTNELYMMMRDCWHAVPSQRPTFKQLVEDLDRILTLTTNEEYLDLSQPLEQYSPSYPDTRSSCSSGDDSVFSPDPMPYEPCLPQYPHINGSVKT

[18] = molecular target: ERK2 (Homo sapiens, UniProt P28482)
[19] = molecular target: IGF1-R (Homo sapiens, UniProt P08069)
Sequence of IGF1-R (P08069 31-1367): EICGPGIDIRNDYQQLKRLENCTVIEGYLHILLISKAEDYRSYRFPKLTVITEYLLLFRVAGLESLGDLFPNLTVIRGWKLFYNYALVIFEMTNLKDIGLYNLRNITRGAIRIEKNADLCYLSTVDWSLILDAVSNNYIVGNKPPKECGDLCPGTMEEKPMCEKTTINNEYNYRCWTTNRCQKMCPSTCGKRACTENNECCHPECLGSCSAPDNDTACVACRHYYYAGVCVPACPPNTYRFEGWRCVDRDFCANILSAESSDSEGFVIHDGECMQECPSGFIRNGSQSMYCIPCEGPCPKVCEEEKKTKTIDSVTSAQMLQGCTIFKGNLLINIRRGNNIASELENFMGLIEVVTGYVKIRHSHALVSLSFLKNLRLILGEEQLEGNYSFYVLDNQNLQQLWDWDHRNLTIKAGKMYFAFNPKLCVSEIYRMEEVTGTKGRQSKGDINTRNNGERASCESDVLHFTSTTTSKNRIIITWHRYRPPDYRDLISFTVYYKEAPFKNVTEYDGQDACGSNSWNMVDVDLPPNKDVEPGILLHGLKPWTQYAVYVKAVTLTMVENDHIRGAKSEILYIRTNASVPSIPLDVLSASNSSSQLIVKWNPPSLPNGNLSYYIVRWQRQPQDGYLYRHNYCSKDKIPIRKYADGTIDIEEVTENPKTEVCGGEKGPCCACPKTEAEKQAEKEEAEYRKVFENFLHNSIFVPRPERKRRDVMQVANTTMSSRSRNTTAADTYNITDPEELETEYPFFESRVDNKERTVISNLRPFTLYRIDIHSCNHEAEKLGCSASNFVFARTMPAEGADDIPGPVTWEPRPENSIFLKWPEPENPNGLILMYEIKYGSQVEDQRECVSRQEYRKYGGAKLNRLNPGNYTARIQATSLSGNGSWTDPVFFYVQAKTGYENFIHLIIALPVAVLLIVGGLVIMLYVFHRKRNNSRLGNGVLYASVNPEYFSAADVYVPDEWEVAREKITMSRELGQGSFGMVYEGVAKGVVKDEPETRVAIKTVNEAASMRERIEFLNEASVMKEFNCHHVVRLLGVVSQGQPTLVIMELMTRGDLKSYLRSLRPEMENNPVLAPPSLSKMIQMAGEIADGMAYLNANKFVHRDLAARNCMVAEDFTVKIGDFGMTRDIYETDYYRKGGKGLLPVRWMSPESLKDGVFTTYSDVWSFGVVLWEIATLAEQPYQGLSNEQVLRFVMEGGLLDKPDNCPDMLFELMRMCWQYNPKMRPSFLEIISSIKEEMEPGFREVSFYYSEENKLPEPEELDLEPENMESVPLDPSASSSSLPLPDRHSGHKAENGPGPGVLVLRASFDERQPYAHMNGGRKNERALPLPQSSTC

[20] = molecular target: S6K-beta (Homo sapiens, UniProt Q9UBS0)
Sequence of S6K-beta (Q9UBS0 whole entry): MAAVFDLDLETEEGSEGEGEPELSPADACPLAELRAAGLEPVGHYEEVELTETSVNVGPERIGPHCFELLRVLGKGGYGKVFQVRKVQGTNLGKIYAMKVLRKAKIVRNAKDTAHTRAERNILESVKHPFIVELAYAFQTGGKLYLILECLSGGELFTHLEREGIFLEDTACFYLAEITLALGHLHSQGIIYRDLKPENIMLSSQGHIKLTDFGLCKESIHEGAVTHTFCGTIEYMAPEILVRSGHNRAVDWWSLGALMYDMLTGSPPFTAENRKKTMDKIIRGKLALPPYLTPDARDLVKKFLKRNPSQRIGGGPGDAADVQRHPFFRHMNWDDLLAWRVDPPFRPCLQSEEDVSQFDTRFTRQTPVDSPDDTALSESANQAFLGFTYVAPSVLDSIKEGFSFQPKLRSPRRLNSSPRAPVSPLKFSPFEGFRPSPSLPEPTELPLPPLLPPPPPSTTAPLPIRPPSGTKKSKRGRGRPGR

[21] = molecular target: TAOK2 (Homo sapiens, UniProt Q9UL54)
[22] = molecular target: LYN (Homo sapiens, UniProt P07948)
[23] = molecular target: JAK1 (Homo sapiens, UniProt P23458)
[24] = molecular target: PRKD2 (Homo sapiens, UniProt Q9BZL6)
[25] = molecular target: TSSK1 (Homo sapiens, UniProt Q9BXA7)
[26] = molecular target: RAF1 (Y340D/Y341D) (Homo sapiens, UniProt P04049, Y340D/Y341D)
[27] = molecular target: ERBB2 (Homo sapiens, UniProt P04626)
[28] = molecular target: EPHB3 (Homo sapiens, UniProt P54753)
[29] = molecular target: PKC-theta (Homo sapiens, UniProt Q04759)
[30] = molecular target: JNK1 (Homo sapiens, UniProt P45983)
[31] = molecular target: LCK (Homo sapiens, UniProt P06239)
Description: Gini coefficients were calculated and the Lorenz curve (Fig 3B) was plotted by applying the Microsoft Excel spreadsheet provided by Graczyk [44].
radiometric protein kinase assays.

[32] = molecular target: BMPR1A (Homo sapiens, UniProt P36894)

Compound: COc1ccc2c3ccnc(Cl)c3n(CC#N)c2c1 [AnnH75]
- residual activity at 1 µM, Mean [1]: 101 % of control
- residual activity at 1 µM, Mean [2]: 100 % of control
- residual activity at 1 µM, Mean [3]: 95 % of control
- residual activity at 1 µM, Mean [4]: 102 % of control
- residual activity at 1 µM, Mean [5]: 88 % of control
- residual activity at 1 µM, Mean [6]: 88 % of control
- residual activity at 1 µM, Mean [7]: 95 % of control
- residual activity at 1 µM, Mean [8]: 97 % of control
- residual activity at 1 µM, Mean [9]: 111 % of control
- residual activity at 1 µM, Mean [10]: 98 % of control
- residual activity at 1 µM, Mean [11]: 91 % of control
- residual activity at 1 µM, Mean [12]: 92 % of control
- residual activity at 1 µM, Mean [13]: 93 % of control
- residual activity at 1 µM, Mean [14]: 41 % of control
- residual activity at 1 µM, Mean [15]: 96 % of control
- residual activity at 1 µM, Mean [16]: 111 % of control
- residual activity at 1 µM, Mean [17]: 85 % of control
- residual activity at 1 µM, Mean [18]: 87 % of control
- residual activity at 1 µM, Mean [19]: 83 % of control
- residual activity at 1 µM, Mean [20]: 102 % of control
- residual activity at 1 µM, Mean [21]: 98 % of control
- residual activity at 1 µM, Mean [22]: 77 % of control
- residual activity at 1 µM, Mean [23]: 93 % of control
- residual activity at 1 µM, Mean [24]: 90 % of control
- residual activity at 1 µM, Mean [25]: 85 % of control
- residual activity at 1 µM, Mean [26]: 99 % of control
- residual activity at 1 µM, Mean [27]: 102 % of control
- residual activity at 1 µM, Mean [28]: 96 % of control
- residual activity at 1 µM, Mean [29]: 113 % of control
- residual activity at 1 µM, Mean [30]: 99 % of control
- residual activity at 1 µM, Mean [31]: 91 % of control
- residual activity at 1 µM, Mean [32]: 89 % of control
